# Laboratory results taken from BindingDB's records for doi:10.7270/Q2DF6PMF (Nmmlsc, 2007).
# Target: T1, N-formyl peptide receptor 2 (Homo sapiens, UniProt P25090)
# T1 sequence (P25090 whole entry): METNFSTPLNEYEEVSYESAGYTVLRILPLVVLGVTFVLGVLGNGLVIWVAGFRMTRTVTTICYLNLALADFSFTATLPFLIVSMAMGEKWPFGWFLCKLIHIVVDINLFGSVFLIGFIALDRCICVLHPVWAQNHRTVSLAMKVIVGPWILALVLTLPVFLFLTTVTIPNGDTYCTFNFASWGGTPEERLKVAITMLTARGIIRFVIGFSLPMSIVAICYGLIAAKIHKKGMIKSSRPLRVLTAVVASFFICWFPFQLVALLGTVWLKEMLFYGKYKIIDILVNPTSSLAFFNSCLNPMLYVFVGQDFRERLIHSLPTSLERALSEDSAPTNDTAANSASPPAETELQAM
# Assay: FPRL1 binding inhibitor potency, dose response, cell-based, FPR counter-screen, fluorescent ligand (AID 520)
Structure (SMILES),IC50,Ki
C[N+]1(C)[C@@H]2CC(OC(=O)[C@H](CO)c3ccccc3)C[C@H]1[C@@H]1O[C@@H]12 (stereo partly drawn) [SCOPOLAMINE METHYL NITRATE],> 66.7 µM,–
"CC(C)OC(=O)c1nnn(-c2nonc2N)c1CN1CCc2ccccc2C1 [1-(4-amino-1,2,5-oxadiazol-3-yl)-5-(3,4-dihydro-1H-isoquinolin-2-ylmethyl)-4-triazolecarboxylic acid propan-2-yl ester]",> 66.7 µM,–
CCOc1cc(C2C(C(=O)c3ccco3)C(=O)C(=O)N2CCc2ccccc2)ccc1O (stereo not drawn) [2-(3-ethoxy-4-hydroxyphenyl)-3-(furan-2-carbonyl)-4-hydroxy-1-(2-phenylethyl)-2H-pyrrol-5-one],> 66.7 µM,> 40.3 µM
O=C1C(=O)N(c2ncccn2)C(c2cccc(Cl)c2)C1C(=O)c1ccco1 (stereo not drawn) [2-(3-chlorophenyl)-3-(furan-2-carbonyl)-4-hydroxy-1-pyrimidin-2-yl-2H-pyrrol-5-one],> 66.7 µM,> 40.3 µM
"N#Cc1c(C(F)(F)F)cc(-c2ccccc2)nc1SCc1nc(N)nc(N2CCOCC2)n1 [2-[(4-amino-6-morpholin-4-yl-1,3,5-triazin-2-yl)methylsulfanyl]-6-phenyl-4-(trifluoromethyl)pyridine-3-carbonitrile]",> 66.7 µM,–
COc1ccc2c(=O)c(-c3cnn(-c4ccccc4)c3)c(C)oc2c1 [7-methoxy-2-methyl-3-(1-phenyl-1H-pyrazol-4-yl)-4H-chromen-4-one],> 66.7 µM,–
Cc1[nH]n2c(=O)c(C#N)c(-c3ccccc3)nc2c1-c1ccccc1 [SMR000047798],> 66.7 µM,–
"Cc1ccc(C2C(C(=O)c3sc(C)nc3C)C(=O)C(=O)N2CCN2CCOCC2)o1 (stereo not drawn) [3-(2,4-dimethyl-1,3-thiazole-5-carbonyl)-4-hydroxy-2-(5-methylfuran-2-yl)-1-(2-morpholin-4-ylethyl)-2H-pyrrol-5-one]",> 66.7 µM,> 40.3 µM
"CCOC(=O)Cc1cc(=O)n2[nH]c(C)c(-c3ccc(Cl)cc3)c2n1 [ethyl 2-[3-(4-chlorophenyl)-2-methyl-7-oxo-1H-pyrazolo[1,5-a]pyrimidin-5-yl]acetate]",> 66.7 µM,–
Cc1[nH]n2c(=O)c3c(nc2c1-c1ccc(Cl)cc1)CCC3 [MLS000034815],> 66.7 µM,–
COc1ccc(CN(C(=O)c2ccccc2OC)C2CCS(=O)(=O)C2)cc1 (stereo not drawn) [MLS000041347],> 66.7 µM,–
"Cc1c(C)c2cc(Cl)c(O)c(CN3CCCCC3)c2oc1=O [6-chloranyl-3,4-dimethyl-7-oxidanyl-8-(piperidin-1-ylmethyl)chromen-2-one]",> 66.7 µM,–
"COc1ccc(C2C(C(=O)c3ccccc3)C(=O)C(=O)N2CC(C)O)c(OC)c1 (stereo not drawn) [(4Z)-5-(2,4-dimethoxyphenyl)-4-[hydroxy(phenyl)methylene]-1-(2-hydroxypropyl)pyrrolidine-2,3-quinone]",> 66.7 µM,> 40.3 µM
CCOC(=O)CCn1nc(-c2ccc(Cl)cc2)cc1N [3-[5-amino-3-(4-chlorophenyl)-1-pyrazolyl]propanoic acid ethyl ester],> 66.7 µM,–
CCOc1cc(C2C(C(=O)c3ccc(C)o3)C(=O)C(=O)N2CCc2ccccc2)ccc1O (stereo not drawn) [2-(3-ethoxy-4-hydroxyphenyl)-4-hydroxy-3-(5-methylfuran-2-carbonyl)-1-(2-phenylethyl)-2H-pyrrol-5-one],> 66.7 µM,> 40.3 µM
"CCOc1cccc(C(=O)C2C(=O)C(=O)N(CCOC)C2c2ccc(C)o2)c1 (stereo not drawn) [(4Z)-4-[(3-ethoxyphenyl)-hydroxymethylidene]-1-(2-methoxyethyl)-5-(5-methyl-2-furanyl)pyrrolidine-2,3-dione]",> 66.7 µM,> 40.3 µM
"COc1ccc2ccccc2c1C1CC(=O)N2CN(C3CCCCC3)CSC2=C1C#N (stereo not drawn) [3-cyclohexyl-8-(2-methoxynaphthalen-1-yl)-6-oxo-2,4,7,8-tetrahydropyrido[2,1-b][1,3,5]thiadiazine-9-carbonitrile]",> 66.7 µM,–
"COc1ccc(OC)c(C(=O)c2nc3c(n2O)CCCCC3)c1 [(2,5-dimethoxyphenyl)-(3-hydroxy-5,6,7,8-tetrahydro-4H-cyclohept[d]imidazol-2-yl)methanone]",> 66.7 µM,–
CCN1C(=O)/C(=C2\SC(=S)N(CCCOC)C2=O)c2ccccc21 [(5Z)-5-(1-ethyl-2-keto-indolin-3-ylidene)-3-(3-methoxypropyl)-2-thioxo-thiazolidin-4-one],> 66.7 µM,–
"COc1ccc2c(=O)c(N3C(=O)c4ccccc4C3=O)c(C)oc2c1 [2-(4-keto-7-methoxy-2-methyl-chromen-3-yl)isoindoline-1,3-quinone]",> 66.7 µM,–
CCn1cc(C(=O)NC2CCC(C)CC2)c(=O)c2cc(S(=O)(=O)N3CCCCC3)ccc21 (stereo not drawn),> 66.7 µM,–
"COc1ccc(-c2cc(C(F)(F)F)nc(N3CCCCC3)n2)cc1OC [4-(3,4-dimethoxyphenyl)-2-(1-piperidinyl)-6-(trifluoromethyl)pyrimidine]",> 66.7 µM,–

# The remaining lines, values ahead:
IC50,Ki,Structure (SMILES)
> 66.7 µM,–,"Cc1cccc(C2CC(c3ccc(Cl)cc3)Nc3nc(N)nn32)c1 (stereo not drawn) [5-(4-chlorophenyl)-7-(3-methylphenyl)-1,5,6,7-tetrahydro-[1,2,4]triazolo[1,5-a]pyrimidin-2-amine]"
> 66.7 µM,> 40.3 µM,"COc1ccc(C2C(C(=O)c3cccs3)C(=O)C(=O)N2c2nnc(C)s2)cc1OC (stereo not drawn) [2-(3,4-dimethoxyphenyl)-1-(5-methyl-1,3,4-thiadiazol-2-yl)-4-oxidanyl-3-thiophen-2-ylcarbonyl-2H-pyrrol-5-one]"
> 66.7 µM,–,CCC(CCC(=O)Nc1cccc(C(=O)O)c1)C(=O)O (stereo not drawn) [3-(4-carboxyhexanoylamino)benzoic acid]
7.6 µM,–,COc1ccc(-c2cn3cccnc3n2)cc1NC(=O)C1CC1 [MLS000045944]
> 66.7 µM,–,CC(=O)SCC(=O)N=c1sc2cc(F)ccc2n1C [MLS000091388]
> 66.7 µM,> 40.3 µM,"COc1ccc(C(=O)C2C(=O)C(=O)N(c3nc(C)c(C)s3)C2c2ccco2)cc1 (stereo not drawn) [(4Z)-1-(4,5-dimethyl-1,3-thiazol-2-yl)-5-(furan-2-yl)-4-[(4-methoxyphenyl)-oxidanyl-methylidene]pyrrolidine-2,3-dione]"
> 66.7 µM,> 40.3 µM,"Cc1nc2c(C)cccn2c1C(=O)C1C(=O)C(=O)N(CCN2CCOCC2)C1c1cccs1 (stereo not drawn) [(4E)-4-[(2,8-dimethyl-3-imidazo[1,2-a]pyridinyl)-hydroxymethylidene]-1-[2-(4-morpholinyl)ethyl]-5-thiophen-2-ylpyrrolidine-2,3-dione]"
> 66.7 µM,> 40.3 µM,"O=C1C(=O)N(Cc2ccccc2)C(c2ccncc2)C1C(=O)c1ccco1 (stereo not drawn) [1-Benzyl-4-(furan-2-carbonyl)-3-hydroxy-5-pyridin-4-yl-1,5-dihydro-pyrrol-2-one]"
> 66.7 µM,–,CCOC(=O)C1CCN(Cc2ccc(C(=O)OC)cc2)CC1 [1-(4-carbomethoxybenzyl)isonipecotic acid ethyl ester]
> 66.7 µM,> 40.3 µM,"COc1ccc(C(=O)C2C(=O)C(=O)N(CCN3CCOCC3)C2c2ccc(C)cc2)cc1 (stereo not drawn) [(4Z)-4-[(4-methoxyphenyl)-oxidanyl-methylidene]-5-(4-methylphenyl)-1-(2-morpholin-4-ylethyl)pyrrolidine-2,3-dione]"
> 66.7 µM,–,"Cc1nn(-c2nc3ccccc3s2)c(C)c1Oc1ccccc1O [2-[1-(1,3-benzothiazol-2-yl)-3,5-dimethyl-pyrazol-4-yl]oxyphenol]"
> 66.7 µM,> 40.3 µM,"Cc1ccc(C2C(C(=O)c3cnn(-c4ccccc4)c3C)C(=O)C(=O)N2CCN2CCOCC2)o1 (stereo not drawn) [(4Z)-4-[hydroxy-(5-methyl-1-phenyl-4-pyrazolyl)methylidene]-5-(5-methyl-2-furanyl)-1-[2-(4-morpholinyl)ethyl]pyrrolidine-2,3-dione]"
> 66.7 µM,–,"COc1cccc(-c2nc(CS(=O)(=O)CC(=O)NCCC(C)C)c(C)o2)c1 [2-[[2-(3-methoxyphenyl)-5-methyl-1,3-oxazol-4-yl]methylsulfonyl]-N-(3-methylbutyl)acetamide]"
> 66.7 µM,–,"COc1ccc(-c2nc(-c3ccc(Br)o3)no2)cc1OC [3-(5-bromanylfuran-2-yl)-5-(3,4-dimethoxyphenyl)-1,2,4-oxadiazole]"
> 66.7 µM,> 40.3 µM,"O=C1C(=O)N(c2ncccn2)C(c2ccc(Cl)c(Cl)c2)C1C(=O)c1ccco1 (stereo not drawn) [2-(3,4-dichlorophenyl)-3-(furan-2-carbonyl)-4-hydroxy-1-pyrimidin-2-yl-2H-pyrrol-5-one]"
> 66.7 µM,–,O=C(NC1CCCC1)C1CC1c1ccccc1 (stereo not drawn) [MLS000061073]
> 66.7 µM,–,Cc1[nH]n2c(=O)c3c(nc2c1-c1cccc2ccccc12)CCC3 [MLS000530451]
> 66.7 µM,> 40.3 µM,"Cc1ccc(C(=O)C2C(=O)C(=O)N(Cc3ccccc3)C2c2cccnc2)o1 (stereo not drawn) [1-benzyl-3-hydroxy-4-[(5-methylfuran-2-yl)carbonyl]-5-(pyridin-3-yl)-2,5-dihydro-1H-pyrrol-2-one]"
> 66.7 µM,–,Cc1sc(NC(=O)C2CCCCC2C(=O)O)c(C(N)=O)c1-c1ccc(C(C)(C)C)cc1 (stereo not drawn) [2-({[3-(aminocarbonyl)-4-(4-tert-butylphenyl)-5-methyl-2-thienyl]amino}carbonyl)cyclohexanecarboxylic acid]
> 66.7 µM,–,"Cc1csc(NC(=O)CCn2c(=O)oc3ccccc32)n1 [3-(2-keto-1,3-benzoxazol-3-yl)-N-(4-methylthiazol-2-yl)propionamide]"
> 66.7 µM,–,Oc1cc(-c2ccccc2)nc(N2CCN(Cc3ccccc3)CC2)n1 [6-phenyl-2-[4-(phenylmethyl)-1-piperazinyl]-1H-pyrimidin-4-one]
11.2 µM,–,"CCOC(=O)CSc1nnc(CNC(=O)c2cc(OCC)c(OCC)c(OCC)c2)n1C [2-[[4-methyl-5-[[(3,4,5-triethoxybenzoyl)amino]methyl]-1,2,4-triazol-3-yl]thio]acetic acid ethyl ester]"
